Source: patent publication US20250134855A1, “CO[…] AND METHODS OF USING SAME” (LYKOS THERAPEUTICS, INC., priority 2022, published 2025)

What was measured:
[1] = system: CYP2B6, CYP2D6, CYP2C19, CYP1A2, CYP3A4, CYP2C9, CYP2C8; assay: CYP enzymes metabolizing MDMA; conditions: less contribution by CYP2C19, CYP1A2, CYP3A4, CYP2C9, and CYP2C8
dogs = assay: 28-day repeat-dose toxicity, weekly oral, dogs; conditions: any dose
[2] = system: MDMA-AT trial participants (MAPP1 and MAPP2); assay: MPLONG long-term follow-up: CAPS-5 durability, responder analysis, relapse; assay type: in vivo, human
From the text: MPLONG is an observational long-term follow-up study for MDMA-AT trial participants intended to provide data on treatment durability as measured by the CAPS-5 and Sheehan Disability Scale (SDS). Participants who elect to enroll in MPLONG completed a LTFU visit at least 6 months following their completion of the parent study. MPLONG opened for enrollment 8 months following the last subject visit of the MAPP1 trial and MAPP1 participants entered MPLONG unblinded to their treatment assignment. Enrollees from the second Phase 3 trial MAPP2, however, complete LTFU with blinding maintained.
A sensitivity analysis was conducted to determine whether there was a detectable difference in the observed trend dependent on the time elapsed since the parent study (Table 47 (Table 47 (Table 47). There was no observable impact of the time window, as durability was maintained in both those with LFTU within a year and those with LTFU greater than 12 months after study termination.

[3] = LTFU visit, MAPP1 and MAPP2, loss of diagnosis at study termination and ≥10 point increase and meeting PTSD diagnostic criteria at LTFU
[4] = LTFU visit, MAPP1 and MAPP2, remission at study termination and >11 CAPS-5 TSS at LTFU
[5] = LTFU visit, MAPP1 and MAPP2, ≤11 CAPS-5 TSS from BL not meeting PTSD diagnostic criteria at LTFU
[6] = LTFU visit, MAPP1 and MAPP2, ≥10 point reduction in CAPS-5 TSS from BL and ≥10 point increase from study termination at LTFU
[7] = LTFU visit, MAPP1 and MAPP2, ≥10 pt reduction in CAPS-5 TSS from BL and not meeting PTSD diagnostic criteria at LTFU
[8] = LTFU visit, MAPP1 and MAPP2, ≥10 pt reduction in CAPS-5 TSS from BL at study termination and LTFU
[9] = MAPP1 and MAPP2, LTFU 6-12 Months
[10] = MAPP1 and MAPP2, LTFU >12 Months
[11] = MAPP1 and MAPP2, Study Termination (last available assessment in parent study)
[12] = MAPP2 participants only, Long Term Follow Up Study Visit 1
[13] = MPLONG, MAPP1 and MAPP2 participants, Visit 1
[14] = MPLONG, MAPP1 and MAPP2 participants, parent study Baseline
[15] = MPLONG, MAPP1 and MAPP2 participants, parent study Visit 8
[16] = MPLONG, MAPP1 and MAPP2 participants, parent study Visit 13
[17] = MPLONG, MAPP1 and MAPP2 participants, parent study Visit 19

Structure (SMILES): CNC(C)Cc1ccc2c(c1)OCO2 (centres unmarked) [MDMA, 3,4-methylenedioxymethamphetamine]
- metabolizing CYP enzymes [1]: metabolized primarily by CYP2B6 and CYP2D6
- neurohistopathology of the brain (dogs): No morphologic changes
- Relapse after Loss of Diagnosis, Does not meet criteria, % [2, 3]: (93.8) %
- Relapse after Loss of Diagnosis, Meets criteria, % [2, 3]: (6.2) %
- Relapse of Remission, Does not meet criteria, % [2, 4]: (95.4) %
- Relapse of Remission, Meets criteria, % [2, 4]: (4.6) %
- Durable Remission, Does not meet criteria, % [2, 5]: (40.0) %
- Durable Remission, Meets criteria, % [2, 5]: (60.0) %
- Relapse after Treatment Response, Does not meet criteria, % [2, 6]: (93.8) %
- Relapse after Treatment Response, Meets criteria, % [2, 6]: (6.2) %
- Durable Loss of Diagnosis, Does not meet criteria, % [2, 7]: (16.9) %
- Durable Loss of Diagnosis, Meets criteria, % [2, 7]: (83.1) %
- Durable Treatment Response, Does not meet criteria, % [2, 8]: (10.8) %
- Durable Treatment Response, Meets criteria, % [2, 8]: (89.2) %
- loss of diagnosis at LTFU ([2]; MAPP1 and MAPP2): 83.1%
- met the definition of treatment response at LTFU ([2]; MAPP1 and MAPP2): 89.2%
- relapse following remission ([2]; MAPP1 and MAPP2): 4.6%
- relapse following treatment response or loss of diagnosis ([2]; MAPP1 and MAPP2): 12.3%
- remission at LTFU ([2]; MAPP1 and MAPP2): 60%
- CAPS-5 Total Severity Score, Actual, Mean [2, 9]: 11.9
- CAPS-5 Total Severity Score, Actual, Median [2, 9]: 9.0
- CAPS-5 Total Severity Score, Change from Study Termination, Mean [2, 9]: −3.7
- CAPS-5 Total Severity Score, Change from Study Termination, Median [2, 9]: −2.5
- CAPS-5 Total Severity Score, Actual, Mean [2, 10]: 11.2
- CAPS-5 Total Severity Score, Actual, Median [2, 10]: 6.0
- CAPS-5 Total Severity Score, Change from Study Termination, Mean [2, 10]: −5.9
- CAPS-5 Total Severity Score, Change from Study Termination, Median [2, 10]: −5.0
- CAPS-5 Total Severity Score, Actual, Mean [2, 11]: 16.4
- CAPS-5 Total Severity Score, Actual, Median [2, 11]: 15.0
- mean change from baseline (CFB) in CAPS-5 scores at LTFU ([2]; MAPP2 parent study): −28.7
- CAPS-5 Total Severity Score, Actual, Mean [2, 12]: 10.7
- CAPS-5 Total Severity Score, Actual, Median [2, 12]: 8.5
- CAPS-5 Total Severity Score, CFB, Mean [2, 12]: −28.7
- CAPS-5 Total Severity Score, CFB, Median [2, 12]: −30.5
- CAPS-5 Total Severity Score, Actual, Mean [2, 13]: 11.5
- CAPS-5 Total Severity Score, Actual, Median [2, 13]: 8.0
- CAPS-5 Total Severity Score, CFB, Mean [2, 13]: −29.2
- CAPS-5 Total Severity Score, CFB, Median [2, 13]: −31.0
- CAPS-5 Total Severity Score, Actual, Mean [2, 14]: 40.8
- CAPS-5 Total Severity Score, Actual, Median [2, 14]: 40.0
- CAPS-5 Total Severity Score, Actual, Mean [2, 15]: 29.5
- CAPS-5 Total Severity Score, Actual, Median [2, 15]: 31.0
- CAPS-5 Total Severity Score, CFB, Mean [2, 15]: −11.3
- CAPS-5 Total Severity Score, CFB, Median [2, 15]: −12.0
- CAPS-5 Total Severity Score, Actual, Mean [2, 16]: 22.0
- CAPS-5 Total Severity Score, Actual, Median [2, 16]: 23.0
- CAPS-5 Total Severity Score, CFB, Mean [2, 16]: −18.8
- CAPS-5 Total Severity Score, CFB, Median [2, 16]: −19.0
- CAPS-5 Total Severity Score, Actual, Mean [2, 17]: 15.9
- CAPS-5 Total Severity Score, Actual, Median [2, 17]: 14.0
- CAPS-5 Total Severity Score, CFB, Mean [2, 17]: −24.8
- CAPS-5 Total Severity Score, CFB, Median [2, 17]: −27.0
- CAPS-5 Total Severity Score, Actual, Mean ([2]; MPLONG, MAPP2 participants only, parent study Baseline): 39.4
